According to patent US9790169B2, “IDO inhibitors” (BRISTOL-MYERS SQUIBB COMPANY, priority 2015, dated 2017):

Biological target: human IDO1 (Homo sapiens, UniProt P14902)
Assay: Assessment of human IDO-1 inhibitory activity in Hela cells (Interferon-gamma stimulated HeLa cells, Ehrlich reagent, absorbance 490 nm)
Assay type: cell-based
Parameters: endogenous in cells; host or cells: HeLa cells stimulated with interferon-gamma
Conditions: Hela Human IDO-1 cellular assay
Description: Exemplary compounds were tested for inhibition of IDO activity.
Assessment of Human IDO-1 Inhibitory Activity in Hela Cells
HeLa cells were seeded at 20,000 cells per 30 μL per well with RPMI/phenol red free media containing 10% FBS in a 384-well tissue culture plate (black with clear bottoms). 50 nL of compound was added to cells and incubated at 37° C. for one hour. 20 μL of the recombinant human Interferon-gamma (R&D System, Cat. #285-IF, at final concentration of 10 ng/ml) or recombinant murine Interferon-gamma (PEPROTECH® Inc., Cat. #315-05, final concentration of 5 ng/ml) was added to activate IDO signaling. The cells were incubated for 18 hours in 37° C. incubator with 5% CO2.
Compound treatment was stopped by adding 5 μl trichloroacetic acid to a final concentration of 3%. Subsequently, the cell plate was further incubated at 50° C. for 30 minute. An equal volume supernatant (20 μL) and 2% (w/v) Ehrlich reagent (4-dimethylaminobenzaldehyde) in glacial acetic acid were mixed in a new clear bottom 384-well plate. This plate was incubated at room temperature for 30 minutes. Absorbance at 490 nm was measured on Envision plate reader.
Compound IC50 values were calculated using counts from unstimulated (no INF-gamma treatment) wells as 100% inhibition. INF-gamma treatment without compound treatment as 0% inhibition.

human IDO1, sequence (P14902 whole entry): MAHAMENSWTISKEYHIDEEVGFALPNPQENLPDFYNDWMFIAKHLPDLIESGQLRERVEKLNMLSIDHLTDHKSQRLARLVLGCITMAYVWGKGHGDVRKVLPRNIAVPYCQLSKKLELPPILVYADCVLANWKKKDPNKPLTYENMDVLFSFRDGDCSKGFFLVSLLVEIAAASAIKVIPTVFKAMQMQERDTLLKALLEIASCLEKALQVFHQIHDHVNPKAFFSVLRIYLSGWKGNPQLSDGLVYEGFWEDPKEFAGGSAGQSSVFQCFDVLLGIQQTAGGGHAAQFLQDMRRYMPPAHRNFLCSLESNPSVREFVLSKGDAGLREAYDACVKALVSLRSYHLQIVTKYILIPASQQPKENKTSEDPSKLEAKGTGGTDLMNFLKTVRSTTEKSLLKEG

Compound | IC50 [nM]
CCC(CC(=O)O)c1cc(Nc2ccc(Cl)cc2)c(N(CC)C2CCOCC2)cc1F (single isomer, unassigned) [Example 856, 3-(5-((4-Chlorophenyl)amino)-4-(ethyl(tetrahydro-2H-pyran-4-yl)amino)-2-fluorophenyl)pentanoic acid] | < 5
CCN(c1ccc(C(CC)(CC)CC(=O)O)cc1Nc1ccc(C#N)cc1)C1CCOCC1 [Example 27, 3-(3-((4-cyanophenyl)amino)-4-(ethyl(tetrahydro-2H-pyran-4-yl)amino)phenyl)-3-ethylpentanoic acid] | < 5
CCC(CC(=O)O)c1cc(F)c(N(CC)C2CCOCC2)c(Nc2ccc(C#N)cn2)c1 (single isomer, unassigned) [Example 138, 3-(3-((5-cyanopyridin-2-yl)amino)-4-(ethyl (tetrahydro-2H-pyran-4-yl)amino)-5-fluorophenyl) pentanoic acid] | < 5
CCC(CC(=O)O)c1ccc(N2C[C@@H]3C[C@H]2CN3C(=O)OC)c(Nc2ccc(C#N)cc2)c1 (single isomer, unassigned) [Example 449] | < 50
CCN(c1ccc([C@H](COC(C)C)CC(=O)O)cc1Nc1ccc(C#N)cc1)C1CCOCC1 (single isomer, unassigned) [Example 329] | < 50
CCOc1ncc(Nc2cc(C(COC)CC(=O)O)ccc2N(C)C2CCOCC2)cn1 (single isomer, unassigned) [Example 878, 3-(3-((2-ethoxypyrimidin-5-yl)amino)-4-(methyl (tetrahydro-2H-pyran-4-yl)amino)phenyl)-4-methoxybutanoic acid] | > 50
COCC(CC(=O)O)c1ccc(N2CCOC[C@H]2C(C)C)c(Nc2ccc(C#N)cc2)c1 (single isomer, unassigned) [Example 912] | < 5
COCC(CC(=O)O)c1ccc(N2CCOC[C@H]2C(C)C)c(NC(=O)Nc2ccc(C#N)cc2)c1 (single isomer, unassigned) [Example 911] | > 50
(R)-3-(4-((1,1-dioxidotetrahydro-2H-thiopyran-4-yl)(ethyl)amino)- 3-((2-methoxypyrimidin-5- yl)amino)phenyl)-4- isopropoxybutanoic acid [Example 332] | > 50
CCN(c1ccc(C2(CC(=O)O)CCOCC2)cc1Nc1ccc(Cl)cc1)C1CCOCC1 [Example 155, 2-(4-(3-((4-chlorophenyl)amino)-4-(ethyl(tetrahydro-2H-pyran-4-yl)amino)phenyl)tetrahydro-2H-pyran-4-yl)acetic acid] | < 5

Next, values leading:

IC50 [nM] | Compound
< 50 | CCC(CC(=O)O)c1ccc(N(CCOC)C2CCOCC2)c(NC(=O)Nc2ccc(Cl)cc2F)c1 (single isomer, unassigned) [Example 1265, 3-(3-(3-(4-chloro-2-fluorophenyl)ureido)-4-((2-methoxyethyl) (tetrahydro-2H-pyran-4-yl)amino)phenyl)pentanoic acid]
< 50 | CCC1COCCN1c1ccc([C@H](COC)CC(=O)O)cc1Nc1ccc(F)cc1 (single isomer, unassigned) [Example 1309]
< 50 | CCC1COCCN1c1ccc([C@@H](COC)CC(=O)O)cc1Nc1ccc(C#N)cc1 (single isomer, unassigned) [Example 1295]
> 50 | CCC(CC(=O)O)c1ccc(N(CCOC)C2CCOCC2)c(NC(=O)Nc2ccc(C)cc2)c1 (single isomer, unassigned) [Example 1264 E1, 3-(4-((2-Methoxyethyl)(tetrahydro-2H-pyran-4-yl)amino)-3-(3-(p-tolyl)ureido)phenyl)pentanoic acid]
< 50 | CCOc1ncc(Nc2cc([C@H](CC)Cc3ncno3)ccc2N(CC)C2CCOCC2)cn1 [Example 1337, (R)-4-(1-(1,2,4-Oxadiazol-5-yl)butan-2-yl)-N2-(2-ethoxypyrimidin-5-yl)-N1-ethyl-N1-(tetrahydro-2H-pyran-4-yl)benzene-1,2-diamine]
